Assay results published in patent US5183899A, “Pyrazole derivative” (Takeda Chemical Industries, Ltd., priority 1989, dated 1993).

Target: T1, angiotensin II receptor (Bos taurus, UniProt P25104)
T1 construct: An A II receptor membrane fraction was prepared from bovine adrenal cortex; from tissue; host or cells: bovine adrenal cortex, receptor membrane fraction
T1 sequence (P25104 1-359): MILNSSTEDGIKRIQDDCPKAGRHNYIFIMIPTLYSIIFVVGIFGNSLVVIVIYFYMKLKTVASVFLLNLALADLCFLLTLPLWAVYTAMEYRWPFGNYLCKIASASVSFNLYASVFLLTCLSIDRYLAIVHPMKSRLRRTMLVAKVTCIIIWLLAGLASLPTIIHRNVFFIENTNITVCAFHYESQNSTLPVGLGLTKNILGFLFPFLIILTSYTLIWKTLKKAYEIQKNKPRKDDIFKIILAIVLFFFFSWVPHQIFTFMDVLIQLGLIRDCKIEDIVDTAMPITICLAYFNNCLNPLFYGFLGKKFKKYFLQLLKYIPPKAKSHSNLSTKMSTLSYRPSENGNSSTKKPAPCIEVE
Experiment: Inhibition of binding of angiotensin II to angiotensin receptors (125I-angiotensin II binding, receptor membrane fraction from bovine adrenal cortex)
Details: 125I-A II, room temperature, 1 hour; for inhibition at 10 µM: 1 × 10^-5 (M); for inhibition at 1 µM: 1 × 10^-6 (M)
Procedure: Inhibition of binding of angiotensin II to angiotensin receptors
An experiment of inhibition of angiotensin II (A (II) receptor binding was conducted according to the modified Douglas et al's method [Endocrinology,102, 685-695 (1978)]. An A II receptor membrane fraction was prepared from bovine adrenal cortex.
the compound of the present invention (10^-6 -10^-5 M) and ^125 I-angiotensin II (^125 I-A II) (1.85 kBq/50 μl) were added to the receptor membrane fraction and incubated at room temperature for 1 hour. Bound and free ^125 I-A II's were separated through a filter (Whatman GF/B filter), and the radioactivity of ^125 I-A II bound to the receptor was measured.

## CCCCc1cc(C(N)=O)nn1Cc1ccc(-c2ccccc2-c2nn[nH]n2)cc1 [compound 14]
  inhibition at 10 µM: 93%
  inhibition at 1 µM: 75%

## CCCCc1cc(C(=O)OC)nn1Cc1ccc(-c2ccccc2-c2nn[nH]n2)cc1 [compound 22]
  inhibition at 10 µM: 90%
  inhibition at 1 µM: 61%

## CCCCc1cc(C(=O)N2CCC(C(c3ccccc3)c3ccccc3)CC2)nn1Cc1ccc(-c2ccccc2-c2nn[nH]n2)cc1 [compound 32]
  inhibition at 10 µM: 88%
  inhibition at 1 µM: 32%

## CCCCc1cc(C(=O)N2CCCC2)nn1Cc1ccc(-c2ccccc2-c2nn[nH]n2)cc1 [compound 25]
  inhibition at 10 µM: 96%
  inhibition at 1 µM: 77%

## CCCCc1cc(C(=O)NOCc2ccccc2)nn1Cc1ccc(-c2ccccc2-c2nn[nH]n2)cc1 [compound 9]
  inhibition at 10 µM: 96%
  inhibition at 1 µM: 73%

## CCCCc1cc(C(=O)NCCOC)nn1Cc1ccc(-c2ccccc2-c2nn[nH]n2)cc1 [compound 15]
  inhibition at 10 µM: 95%
  inhibition at 1 µM: 88%

## CCCCc1cc(C(=O)NC(C)(C)C)nn1Cc1ccc(-c2ccccc2-c2nn[nH]n2)cc1 [compound 3]
  inhibition at 10 µM: 94%
  inhibition at 1 µM: 81%

## CCCCc1cc(C(=O)NC(C)C)nn1Cc1ccc(-c2ccccc2-c2nn[nH]n2)cc1 [compound 16]
  inhibition at 10 µM: 95%
  inhibition at 1 µM: 91%

## CCCCc1cc(C(=O)OCC(F)(F)F)nn1Cc1ccc(-c2ccccc2-c2nn[nH]n2)cc1 [compound 20]
  inhibition at 10 µM: 94%
  inhibition at 1 µM: 66%

## CCCCCc1cc(C(=O)OCC)nn1Cc1ccc(-c2ccccc2-c2nn[nH]n2)cc1 [compound 18]
  inhibition at 10 µM: 88%
  inhibition at 1 µM: 54%

## CCCCc1cc(C(=O)NCC)nn1Cc1ccc(-c2ccccc2-c2nn[nH]n2)cc1 [compound 12]
  inhibition at 10 µM: 97%
  inhibition at 1 µM: 85%

## CCCCc1cc(C(=O)Nc2ccccc2)nn1Cc1ccc(-c2ccccc2-c2nn[nH]n2)cc1 [compound 7]
  inhibition at 10 µM: 97%
  inhibition at 1 µM: 91%

## CCCCc1cc(C(=O)N2CCN(C(c3ccccc3)c3ccccc3)CC2)nn1Cc1ccc(-c2ccccc2-c2nn[nH]n2)cc1 [compound 31]
  inhibition at 10 µM: 89%
  inhibition at 1 µM: 38%

## CCCCNC(=O)c1cc(CCCC)n(Cc2ccc(-c3ccccc3-c3nn[nH]n3)cc2)n1 [compound 2]
  inhibition at 10 µM: 95%
  inhibition at 1 µM: 80%

## CCCCc1cc(C(=O)OC(C)C)nn1Cc1ccc(-c2ccccc2-c2nn[nH]n2)cc1 [compound 17]
  inhibition at 10 µM: 98%
  inhibition at 1 µM: 91%

## CCCCc1cc(C(=O)N2CCOCC2)nn1Cc1ccc(-c2ccccc2-c2nn[nH]n2)cc1 [compound 27]
  inhibition at 10 µM: 97%
  inhibition at 1 µM: 92%

## CCCCc1cc(C(=O)OCC)nn1Cc1ccc(-c2ccccc2-c2nn[nH]n2)cc1 [compound 1]
  inhibition at 10 µM: 92%
  inhibition at 1 µM: 75%

## CCCCc1cc(C(=O)NCc2ccccc2)nn1Cc1ccc(-c2ccccc2-c2nn[nH]n2)cc1 [compound 6]
  inhibition at 10 µM: 95%
  inhibition at 1 µM: 83%

## CCCc1cc(C(=O)OCC)nn1Cc1ccc(-c2ccccc2-c2nn[nH]n2)cc1 [compound 19]
  inhibition at 10 µM: 90%
  inhibition at 1 µM: 62%

## CCCCc1cc(C(=O)NCCC)nn1Cc1ccc(-c2ccccc2-c2nn[nH]n2)cc1 [compound 13]
  inhibition at 10 µM: 99%
  inhibition at 1 µM: 85%

## CCCCc1cc(C(=O)NC2Cc3ccccc3C2)nn1Cc1ccc(-c2ccccc2-c2nn[nH]n2)cc1 [compound 8]
  inhibition at 10 µM: 95%
  inhibition at 1 µM: 86%

## CCCCc1cc(C(=O)NC2CCCCC2)nn1Cc1ccc(-c2ccccc2-c2nn[nH]n2)cc1 [compound 5]
  inhibition at 10 µM: 98%
  inhibition at 1 µM: 93%
